Experimental data reported in patent publication US11548855B2, “Pyrazole amide compound and application thereof, and fungicide” (Shandong United Pesticide Industry Co. Ltd., priority 2017, dated 2023).

Key:
[1] = test system: wheat powdery mildew (Erysiphe graminis); assay: Greenhouse pot test, wheat powdery mildew; type: in vivo; settings: Blumeria graminis, 168 h, read-out: Control effect (%) Wheat powdery mildew
Text: Test method: each of the test compounds in Table 1 was dispensed to 5 wt % emulsifiable concentrate (hereinafter referred to as 5% EC). The greenhouse pot test was used in each experiment, and the effective concentrations of each compound were illustrated in Table 1.
Wheat powdery mildew: two-leaf stage potted wheat seedling with uniform growth was selected and made foliar spray treatment with 5% EC, the blank control sprayed with clean water was additionally arranged, three replicates were carried out. After 24 h, the leaves of the host plants were inoculated by shake-down method with sporangial suspensions of the fungi wheat powdery mildew (Erysiphe graminis), the plants were stored in a greenhouse (25±1° C.). After 7 days, the screening results were investigated according to the disease incidence condition of blank control.
The investigation method: “Guidelines for the field efficacy trials of pesticides” was adopted as the grading standard, and the control effect in a unit of % was calculated based on the disease index. Disease index=Σ(number of diseased leaves at each grade×relative grade value)×100/(total number of leaves×9); Control effect (%)=(disease index of control−disease index of treated)×100/disease index of control;
The compounds provided by the present disclosure and some control compounds were tested by the same methods in the Test example 1, except that the effective concentrations of the compounds in this Test example are shown in Table 2.

cucumber powdery mildew = assay: Field trial, cucumber powdery mildew; type: in vivo; settings: sprayed twice
Method: I. Cucumber Powdery Mildew Test Method:
Spray method: Stein and leaf spray (Applicator: Xinkangda lithium battery electric sprayer).
Test crop: cucumber (cultivars: Tianjiao7)
The test was carried out in Shenyang, the test field was loam with rich organic matters and normal management of fertilizer and water, and no other pesticide was applied during the test.
The arrangement of the test plot was random block permutation; the area of the test plot: 15 m^2; repeat times: 3 times; spray time and frequency: period between Sep. 28, 2018 and Oct. 11, 2018, twice. Spray dosage: each treatment was repeated 3 times, the total water consumption was 8 L. No other pesticide was applied during the test. […] 15-20 days after the second treatment, the incidence of disease spots in each plot was investigated.
The incidence of disease spots in each plot was investigated by randomly selecting 4 samples/plot and 2 plants/samples, all leaves/plant, the incidence of the whole plant was recorded by counting the number of disease leaves and determining the incidence grade.
Grading standard (in units of leaves):
Grade 0: no leaf-spot area;
Grade 1: the ratio of leaf-spot area to leaf area is less than 5%;
Grade 3: the ratio of leaf-spot area to leaf area is between 6-10%;
Grade 5: the ratio of leaf-spot area to leaf area is between 11-20%;
Grade 7: the ratio of leaf-spot area to leaf area is between 21-40%;
Grade 9: the ratio of leaf-spot area to leaf area is more than 40%;
According to the relevant content of the “Guidelines for the field efficacy trials of pesticides of the People's Republic of China (PRC)”, the disease index was calculated according to the grading standard, and the control effect in a unit of % was calculated based on the disease index, and the test data of significance analysis was performed by using DPS evaluation system (DMRT).

Cn1cc(C(=O)Nc2ccccc2Oc2ccc(C(F)(F)F)cc2C(F)(F)F)c(C(F)F)n1 [Compound 1]
pest or weed control at 1.5625 µg/mL ([1]; 1.5625 mg/L): 85% | pest or weed control at 2.5 µg/mL ([1]; 2.5 mg/L): 100% | pest or weed control at 3.125 µg/mL ([1]; 3.1250 mg/L): 100% | pest or weed control at 6.25 µg/mL ([1]; 6.25 mg/L): 100% | pest or weed control at 10 µg/mL ([1]; 10 mg/L): 100% | pest or weed control at 25 µg/mL ([1]; 25 mg/L): 100% | pest or weed control at 100 µg/mL ([1]; 100 mg/L): 100% | Control effect (%) Cucumber powdery mildew (cucumber powdery mildew; 100 mg/L): 90.0% | Control effect (%) Cucumber powdery mildew (cucumber powdery mildew; 200 mg/L): 96.5%
